Experimental data published in EP2769974A1, “Novel AMPK activator” (Debiopharm S.A., priority 2013, dated 2014).

Assays:
[1] = test system: β2-containing heterotrimers of human recombinant AMPK; assay: AMPK activation assay (phosphorylation of ACC1/1-120 at ser79, AlphaScreen), β2-containing heterotrimers; type: biochemical; conditions: two β2-containing heterotrimers; 100 µM ATP, room temperature, 60 minutes
Protocol: (§1) The compound of formula (I) was assayed in vitro to determine its EC50 against four different AMPK heterotrimers (two containing the β1 subunit and two containing the β2 subunit). AMPK activity was measured by the phosphorylation of the amino-terminal fragment of human acetyl CoA carboxylase-type 1, amino acids 1-120 (ACC1/1-120), at ser79. The fragment was expressed as a biotinylated fusion protein in E.coli. Human rAMPK genes were expressed in insect cells using baculovirus vectors or in the monkey COS7 cell expression systems. The compound was tested in triplicate at each of the following concentrations (µM): 45, 15, 5, 1.67, 0.56, 0.185, 0.06, 0.02 and 0.00685. A positive control comprising AMP (100 uM), and a negative control without enzyme, were used. The enzyme assay was conducted in a 5 µl reaction mixture containing compound of formula (I) at the indicated concentrations in 80 mM HEPES, pH7.0, 160 mM NaCl, 2.5 mM MgCl2, 1mM DTT, 0.05% Tween-20, 100 µM ATP with AMPK at 0.08 ng/µl and ACC1/1-120 at 0.004 ng/µl. […] The reaction mixture was further incubated overnight at RT and analyzed on a Perkin EImer Fusion-Alpha microplate analyzer. The AlphaScreen readout for this assay is based on an excitation with laser-stimulated visible light at 680 nm and emission at 520-620 nm.

[2] = test system: β1-containing heterotrimers of human recombinant AMPK; assay: AMPK activation assay (phosphorylation of ACC1/1-120 at ser79, AlphaScreen), β1-containing heterotrimers; type: biochemical; conditions: two β1-containing heterotrimers; 100 µM ATP, room temperature, 60 minutes
Protocol: as §1

HFD mice [3] = assay: Hepatic glucose production in HFD mice (hyperinsulinemic-euglycemic clamp); type: in vivo; conditions: for hepatic glucose production: orally 60 mg/kg twice daily for 40 days, under insulin stimulated states, p < 0.001 vs Control HFD, 60 mg/kg
Protocol: Six-week-old male C57BI/6 mice were fed a high-fat diet or chow diet for 3 months. Then, HFD mice were treated orally with vehicle (Control HFD) or compound of formula (I) at 60 mg/kg twice daily for 40 days. Chow fed mice were treated orally with vehicle alone (Control CD). Hepatic glucose production was assessed during a hyperinsulinemic-euglycemic clamp using a 12 mU/kg/min insulin infusion rate. Hyperinsulinemic-euglycemic clamps were performed in chronically cannulated awake free moving mice. Before the start of the clamp procedure mice were fasted for 6 hours. ^3H-glucose alone was then infused for 210 minutes to assess the basal whole body glucose turnover (= hepatic glucose output). The basal procedure started with D-[3-3H]glucose, which was infused (2µL/min, 30µCi/min/kg) for 90 minutes (time -60 to time 30 minutes). An euglycemic hyperinsulinemic 1 step insulin clamp was then performed from 30 minutes to 150 minutes, with a 12mU/kg/min insulin infusion. Glucose (16.5%) infusion rate was adjusted until steady-state blood glucose (120 mg/dL, ± 10 mg/dL) was achieved. Calculations for glucose turnover measurements were made from parameters obtained during the last 60 min of the infusions in steady-state condition, Briefly, the D-[3-3H]glucose-specific activity was calculated by dividing the D-[3-3H]glucose enrichment by the plasma glucose concentration. The whole-body glucose turnover rate was calculated by dividing the rate of D-[3-3H]glucose by the D-[3-3H]glucose plasma-specific activity. For each mouse, the mean values were calculated and averaged with values from mice of the same group.

[4] = test system: high-fat diet-fed (HFD) mice; assay: Fasting plasma glycemia and insulin sensitivity in high-fat diet-fed (HFD) mice; type: in vivo
Protocol: Six-week-old male C57BI/6 mice were fed a high-fat diet or chow diet for 3 months. Then, HFD mice were treated orally with vehicle (Control HFD) or compound of formula (I) at 60 mg/kg twice daily for 4 weeks. Chow fed mice were treated orally with vehicle alone (Control CD). At completion of this treatment period, mice were fasted for 6 hours and blood glucose levels were assessed with a blood glucosemeter from blood samples collected from the tip of the tail vein.

HFD hamster = assay: Circulating lipids (FPLC lipoprotein profile) and insulin sensitivity in HFD hamster; type: in vivo
Protocol: Hamsters were fed a control chow diet with normal drinking water or high fat diet with 10% fructose drinking water over 30 days. After 16 days of high-fat diet, two groups of hamsters were treated orally with either vehicle (control HFD) or Compound of formula (I) twice daily for 14 days. Hamsters fed the chow diet were also treated orally for 14 days with vehicle BID (control CD). After the treatment period, hamsters were overnight fasted, blood samples were obtained from the retroorbital plexus. Plasma was immediately isolated by centrifugation and for each group, a 400 µL pool of plasma was made from the individual plasma samples. Lipoproteins were separated by fast performance liquid chromatography (FPLC). FPLC fractions were monitored for cholesterol levels.

HFD mice [5] = assay: Hepatic lipids in HFD mice; type: in vivo; conditions: orally 60 mg/Kg twice daily for 40 days, to near control chow values
Protocol: Six-week-old male C57BI/6 mice were fed a high-fat diet or chow diet for 3 months. Then, HFD mice were treated orally with vehicle (Control HFD) or compound of formula (I) at 60 mg/Kg twice daily for 40 days. Chow fed mice were treated orally with vehicle alone (Control CD). At completion of this treatment period, mice were sacrificed and liver collected for determination of triglycerides, cholesterol and free fatty acids (FFA) content. Commercial kits were used to measure the levels of hepatic cholesterol (cholesterol RTU, Biomerieux), triglyceride (TG) (triglyceride PAP 150, Biomerieux), and fatty acid (NEFA-HR (2), Wako Chemicals) levels from liver homogenate. Results were then normalized to the weight of the sample.

[6] = HFD hamsters, orally twice daily for 14 days, FPLC of pooled plasma

O=C(O)c1c[nH]c2ccc(-c3ccc(-c4c(O)cccc4O)cc3)cc12 [compound of formula (I), 5-(2',6'-dihydroxy-biphenyl-4-yl)-1H-indole-3-carboxylic acid]
EC50 [1]: < 5000 nM | EC50 [2]: < 500 nM | decrease of hepatic glucose production (HFD mice [3]; orally 60 mg/kg twice a day, basal state): at least 34% | hepatic glucose production (HFD mice [3]): normalized | hepatic glucose production (HFD mice [3]; listed as Compound of formula (I)): blunted | decrease of fasting plasma glycemia ([4]; orally 60 mg/kg twice a day): at least 17% | blood glucose ([4]; orally 60 mg/kg twice daily for 4 weeks, fasted for 6 hours, p <0.05 vs Control HFD): significantly decreased | HOMA-IR decrease (insulin sensitivity) ([4]; results not shown): 43% | HOMA-IR decrease (insulin sensitivity) (HFD hamster; HFD hamster, results not shown): 37% | HDL total cholesterol levels (HFD hamster; [6]): increased | LDL total cholesterol levels (HFD hamster; [6]): reduced | VLDL total cholesterol levels (HFD hamster; [6]): reduced | liver lipids content (HFD mice [5]): reduced
